Structures can show the parent of a compound that is named as a salt.

As usually defined, the melting point is the temperature, or range, at which the solid turns liquid. Compound `COc1cc(Nc2c(C#N)cnc3cc4cc(OCCCCl)c(OC)cc4cc23)c(Cl)cc1Cl` [Example 24, 8-(3-Chloropropoxy)-4-(2,4-dichloro-5-methoxyphenylamino)-7-methoxybenzo[g]quinoline-3-carbonitrile] displayed a melting point of 220 to 223 °C.
The same measure for `COc1cc2cc3c(Cl)c(C#N)cnc3cc2cc1O` [Example 14, 4-Chloro-8-hydroxy-7-methoxybenzo[g]quinoline-3-carbonitrile]: greater than 300 °C.
In turn, `COc1cc(CCC#N)c(Br)cc1OCc1ccccc1` [Example 2, 3-(4-Benzyloxy-2-bromo-5-methoxyphenyl)-propionitrile] had a melting point of 52 to 53 °C.
Consider `COc1cc2cc3c(Nc4ccc(Sc5nccn5C)c(Cl)c4)c(C#N)cnc3cc2cc1OCCN1CCOCC1` [Example 17, 4-[3-Chloro-4-(1-methyl-1H-imidazol-2-ylsulfanyl)phenylamino]-7-methoxy-8-(2-morpholin-4-yl-ethoxy)benzo[g]quinoline-3-carbonitrile], for which the melting point was greater than 300 °C.
As to `COc1cc2cc3c(Nc4ccc(Sc5nccn5C)c(Cl)c4)c(C#N)cnc3cc2cc1OCCn1ccnn1` [Example 22, 4-[3-Chloro-4-(1-methyl-1H-imidazol-2-ylsulfanyl)phenylamino]-7-methoxy-8-(2-[1,2,3]triazol-1-yl-ethoxy)benzo[g]quinoline-3-carbonitrile], the melting point was in the range of 201 to 207 °C.
`COc1cc(CBr)c(Br)cc1OCc1ccccc1` [Example 1, 5-(Benzyloxy)-1-bromo-2-(bromomethyl)-4-methoxybenzene] registered a melting point of 103 to 105 °C.
For `COc1cc2cc3c(Nc4ccc(Br)cc4F)ncnc3cc2cc1OCCN1CCOCC1` (as salt: hydrochloride) [Example 32, (4-Bromo-2-fluorophenyl)-[7-methoxy-8-(2-morpholin-4-yl-ethoxy)benzo[g]quinazolin4-yl]-amine], the melting point fell in the range of 210 to 225 °C.
In turn, `COc1cc2cc(C(=O)OC(C)(C)C)c(N)cc2cc1OCCN1CCOCC1` [Example 10, 3-Amino-7-methoxy-6-(2-morpholin-4-yl-ethoxy)-naphthalene-2-carboxylic acid tert-butyl ester] gave a melting point of 125 to 127 °C.
The figure for `COc1cc2cc3c(=O)c(C#N)c[nH]c3cc2cc1OCc1ccccc1` [Example 8, 8-Benzyloxy-7-methoxy-4-oxo-1,4-dihydrobenzo[g]quinoline-3-carbonitrile] is greater than 300 °C; for `COc1cc2cc(C(=O)OC(C)(C)C)c(N)cc2cc1O` [Example 9, 3-Amino-6-hydroxy-7-methoxy-naphthalene-2-carboxylic acid tert-butyl ester] it is 262 to 263 °C.
For the compound `COc1cc2c(cc1OCc1ccccc1)C(C#N)(Sc1ccc(Cl)cc1)C2` (centres unmarked) [Example 4, 4-Benzyloxy-7-(4-chloro-phenylsulfanyl)-3-methoxybicyclo [4.2.0]octa-1,3,5-triene-7-carbonitrile], the melting point lay in the range of 114 to 115 °C.
Take `COc1cc2cc3c(Cl)ncnc3cc2cc1OCCN1CCOCC1` [Example 31, 4-Chloro-7-methoxy-8-(2-morpholin-4-yl-ethoxy)benzo[g]quinazoline]: the melting point was 166 to 168 °C.
Turning to `COc1cc(Nc2ncnc3cc4cc(OCc5ccccc5)c(OC)cc4cc23)c(Cl)cc1Cl` [Example 30, (8-Benzyloxy-7-methoxybenzo[g]quinazolin-4-yl)-(2,4-dichloro-5-methoxyphenyl)amine], the melting point was 275 to 280 °C.
The same measure for `COc1cc2cc(C#N)c(N)cc2cc1OCc1ccccc1` [Example 29, 3-Amino-6-benzyloxy-7-methoxynaphthalene-2-carbonitrile]: 241 to 243 °C; for `COc1cc(Nc2c(C#N)cnc3cc4cc(OCCCN5CCOCC5)c(OC)cc4cc23)c(Cl)cc1Cl` [Example 25, 4-(2,4-Dichloro-5-methoxyphenylamino)-7-methoxy-8-(3-morpholin-4-yl-propoxy)benzo[g]quinoline-3-carbonitrile]: 205 to 208 °C; for `COc1cc2cc3c(=O)c(C#N)c[nH]c3cc2cc1OCCN1CCOCC1` [Example 12, 7-Methoxy-8-(2-morpholin-4-yl-ethoxy)-4-oxo-1,4-dihydrobenzo[g]quinoline-3-carbonitrile]: 275 °C (dec.).
The figure for `COc1cc2cc3c(=O)[nH]cnc3cc2cc1OCCN1CCOCC1` [Example 11, 7-Methoxy-8-(2-morpholin4-yl-ethoxy)-3H-benzo[g]quinazolin-4-one] is 230 to 232 °C; for `COc1cc2c(cc1OCc1ccccc1)C(C#N)(Sc1ccccc1)C2` (centres unmarked) [Example 5, 4-Benzyloxy-3-methoxy-7-phenylsulfanylbicyclo [4.2.0]octa-1,3,5-triene-7-carbonitrile] it is 109 to 110 °C.
The same measure for `COc1cc2cc3c(Nc4ccc(Sc5nccn5C)c(Cl)c4)c(C#N)cnc3cc2cc1O` [Example 15, 4-[3-Chloro-4-(1-methyl-1 H-imidazol-2-ylsulfanyl)phenylamino]-8-hydroxy-7-methoxybenzo[g]quinoline-3-carbonitrile]: greater than 300 °C; for `COc1cc2c(cc1OCc1ccccc1)C(C#N)C2` (centres unmarked) [Example 3, 4-Benzyloxy-3-methoxybicyclo[4.2.0]octa-1,3,5-triene-7-carbonitrile]: 85 °C.
Compound `COc1cc2cc3c(=O)c(C#N)c[nH]c3cc2cc1O` [Example 13, 8-Hydroxy-7-methoxy-4-oxo-1,4-dihydrobenzo[g]quinoline-3-carbonitrile] displayed a melting point greater than 300 °C.
The compound `COc1cc(Nc2ncnc3cc4cc(OCCN5CCOCC5)c(OC)cc4cc23)c(Cl)cc1Cl` (as salt: hydrochloride) [Example 33, (2,4-Dichloro-5-methoxyphenyl)-[7-methoxy-8-(2-morpholin-4-yl-ethoxy)benzo[g]-quinazolin-4-yl]-amine] gave a melting point of 258 to 260 °C.
The figure for `COc1cc2cc(C(=O)OC(C)(C)C)c(N)cc2cc1OCc1ccccc1` [Example 7, 3-Amino-6-benzyloxy-7-methoxynaphthalene-2-carboxylic acid tert-butyl ester] is 179 to 180 °C.
